We go through 13 molecules from US8785488B2 (Exelixis Patent Company LLC, priority 2009, dated 2014).

The assay concerns the target T1, human TGR5 (h-TGR5) (Homo sapiens, UniProt Q8TDU6).
T1 construct: expressed in transfected cells
T1 sequence (Q8TDU6 1-330): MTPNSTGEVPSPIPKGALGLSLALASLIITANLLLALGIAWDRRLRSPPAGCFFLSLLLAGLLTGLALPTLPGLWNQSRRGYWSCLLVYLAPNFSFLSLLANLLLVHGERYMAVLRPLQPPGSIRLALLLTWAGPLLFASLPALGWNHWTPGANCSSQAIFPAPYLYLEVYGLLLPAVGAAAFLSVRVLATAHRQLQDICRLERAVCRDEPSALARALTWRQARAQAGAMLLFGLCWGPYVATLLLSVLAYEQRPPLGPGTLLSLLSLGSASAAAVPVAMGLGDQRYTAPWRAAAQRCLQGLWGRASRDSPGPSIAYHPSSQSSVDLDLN
The assay is described as follows: TGR5/CRE-Luciferiase Assay (HEK 293 hTGR5/CRE-Luc cells). The note with it: h-TGR5 CRE-Luc EC50, Table 1; read-out: CRE-Luc (EC50). It is filed as cell-based. The gist of the method: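 HEK293 cells stably carrying hTGR5 and a CRE-luciferase reporter were exposed to serially diluted compounds (diluted in DMEM with 5% DMSO) for 6 h. Cells were then lysed in luciferase buffer, luminescence was read, and EC50 values were derived from dose-response curves.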

As to `CC(C)(c1ccc(Cl)c(Cl)c1)c1nc(CSc2ccc(F)cc2Cl)cn1-c1ccc(F)cc1` [4-{[(2-chloro-4-fluorophenyl)thio]methyl}-2-[1-(3,4-dichlorophenyl)-1-methylethyl]-1-(4-fluorophenyl)-1H-imidazole], the EC50 is 1 to 10 µM.

`CC(C)(C(=O)O)c1cc(CSc2ncc(C(C)(C)c3ccc(Cl)c(Cl)c3)n2-c2ccc(F)cc2)ccc1F` [2-{5-[({5-[1-(3,4-dichlorophenyl)-1-methylethyl]-1-(4-fluorophenyl)-1H-imidazol-2-yl}thio)methyl]-2-fluorophenyl}-2-methylpropanoic acid]: the EC50 lay within 1 to 10 µM.

In the case of `CC(C)(c1ccc(Cl)c(Cl)c1)c1cnc(COc2ncc(C(F)(F)F)cc2Cl)n1-c1ccc(F)cc1` [3-chloro-2-[({5-[1-(3,4-dichlorophenyl)-1-methylethyl]-1-(4-fluorophenyl)-1H-imidazol-2-yl}methyl)oxy]-5-(trifluoromethyl)pyridine], the EC50 fell in the range of 1 to 10 µM.

With `CC(C)(O)COc1cc(F)ccc1CSc1ncc(C(C)(C)c2ccc(Cl)c(Cl)c2)n1-c1ccc(F)cc1` [1-({2-[({5-[1-(3,4-dichlorophenyl)-1-methylethyl]-1-(4-fluorophenyl)-1H-imidazol-2-yl}thio)methyl]-5-fluorophenyl}oxy)-2-methylpropan-2-ol], the EC50 fell in the range of 0.1 to 1 µM.

`CC(C)(c1ccc(Cl)c(Cl)c1)c1cnc(SCc2c(F)cccc2Cl)n1-c1ccc(Cl)cc1F` [1-(4-chloro-2-fluorophenyl)-2-{[(2-chloro-6-fluorophenyl)methyl]thio}-5-[1-(3,4-dichlorophenyl)-1-methylethyl]-1H-imidazole]: the EC50 is 0.1 to 1 µM.

As for `CC(C)(c1ccc(Cl)c(Cl)c1)c1cnc(SCC2CCNCC2)n1-c1ccc(F)cc1` [4-[({5-[1-(3,4-dichlorophenyl)-1-methylethyl]-1-(4-fluorophenyl)-1H-imidazol-2-yl}thio)methyl]piperidine], the EC50 was 1 to 10 µM.

As to `CC(C)(c1ccc(Cl)c(F)c1)c1cnc(SCc2c(F)cccc2Cl)n1-c1ccc(F)cc1` [5-[1-(4-chloro-3-fluorophenyl)-1-methylethyl]-2-{[(2-chloro-6-fluorophenyl)methyl]thio}-1-(4-fluorophenyl)-1H-imidazole], the EC50 was below 0.1 µM.

`CC(C)(c1ccc(Cl)c(Cl)c1)c1cnc(SCc2c(F)cccc2Cl)n1CCO` [2-(2-{[(2-chloro-6-fluorophenyl)methyl]thio}-5-[1-(3,4-dichlorophenyl)-1-methylethyl]-1H-imidazol-1-yl)ethanol]: the EC50 fell in the range of 0.1 to 1 µM.

`CC(C)(c1ccc(Cl)c(Cl)c1)c1cnc(COc2ccc(F)cc2Cl)n1-c1ccc(F)cc1` [2-{[(2-chloro-4-fluorophenyl)oxy]methyl}-5-[1-(3,4-dichlorophenyl)-1-methylethyl]-1-(4-fluorophenyl)-1H-imidazole]: the EC50 lay within 1 to 10 µM.

Consider `CC(C)(c1ccc(Cl)c(Cl)c1)c1cnc(COc2ccc3ncccc3c2)n1-c1ccc(F)cc1` [6-[({5-[1-(3,4-dichlorophenyl)-1-methylethyl]-1-(4-fluorophenyl)-1H-imidazol-2-yl}methyl)oxy]quinoline], for which the EC50 was in the range of 0.1 to 1 µM.

Regarding `CC(C)(c1ccc(Cl)c(O)c1)c1cnc(SCc2c(F)cc(C(=O)O)cc2F)n1-c1ccc(F)cc1` [4-[({5-[1-(4-chloro-3-hydroxyphenyl)-1-methylethyl]-1-(4-fluorophenyl)-1H-imidazol-2-yl}thio)methyl]-3,5-difluorobenzoic acid], the EC50 is 0.1 to 1 µM.

For the molecule `COc1ccc(C(C)(C)c2cnc(SCc3ccc(F)c(C(=O)O)c3)n2-c2ccc(F)cc2)cc1Cl` [5-({[5-{1-[3-chloro-4-(methyloxy)phenyl]-1-methylethyl}-1-(4-fluorophenyl)-1H-imidazol-2-yl]thio}methyl)-2-fluorobenzoic acid], the half-maximal effective concentration (EC50) was 0.1 to 1 µM.

Regarding `CC(C)(c1ccc(Cl)c(Cl)c1)c1cnc(COc2ccc(C(N)=O)c(Cl)c2)n1-c1ccc(F)cc1` [2-chloro-4-[({5-[1-(3,4-dichlorophenyl)-1-methylethyl]-1-(4-fluorophenyl)-1H-imidazol-2-yl}methyl)oxy]benzamide], the EC50 is 1 to 10 µM.

As a reminder, the EC50 is the concentration at which the effect is half-maximal.
